The structures appear in SMILES notation. Structures can show the parent of a compound that is named as a salt.

The subject of one data set is smooth muscle cells (SMC). The data set is described as follows: anti-proliferation assay (perlecan). It counts as cell-based. The conditions noted are these: read-out: Activity (note 1). The gist of the method:
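Compounds are added to smooth muscle cells in growth or serum-free medium. The change in proliferation is measured, e.g. by labelled-nucleotide incorporation into DNA, against untreated cells; IC50 values are given as activity bins.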
For `COc1ccc(Nc2nc(NNC(=O)CCCCC3SCC4NC(=O)NC43)nc(NC3CCCCCC3)n2)cc1Cl` (stereo not drawn) [drawing 596, 5-(2-Oxo-hexahydro-thieno[3,4-d]imi-dazol-4-yl)-pentanoic acidN′-[4-(3-chloro-4-methoxy-phenyl-amino)-6-cyclo-heptylamino-[1,3,5]triazine-2-yl]-hy-drazide], the IC50 was in the range of 3 to 7 µM.

The data set is the same for the next values; noted with them: read-out: Avg IC-50.
As for `COc1ccc(Nc2nc(NNC(=O)CCCCC3SCC4NC(=O)NC43)nc(NC3CCCCCC3)n2)cc1Cl` (stereo not drawn) [drawing 596, 5-(2-Oxo-hexahydro-thieno[3,4-d]imi-dazol-4-yl)-pentanoic acidN′-[4-(3-chloro-4-methoxy-phenyl-amino)-6-cyclo-heptylamino-[1,3,5]triazine-2-yl]-hy-drazide], the IC50 is 5 µM.

The data set is the same for the next values; noted with them: using the same activity scale used in Table 3.
With `COc1ccc(Oc2nc(Oc3ccc(OC)c(F)c3)nc(Oc3ccc(OC)c(F)c3)n2)cc1F` [2,4,6-Tris-(3-fluoro-4-methoxy-phenoxy)-[1,3,5]triazine], the “activity in anti-proliferation assay (Perlecan), in words” value (“activity in anti-proliferation assay” below) is “high activity”.

Turning to `COc1ccc(Nc2nc(NC3CCCCCC3)nc(Sc3ccccc3)n2)cc1Cl` [N-(3-Chloro-4-methoxy-phenyl)-N′-cycloheptyl-6-phenylsulfanyl-[1,3,5]triazine-2,4-diamine], the “activity in anti-proliferation assay” value is “high activity”.

As for `COc1ccc(Nc2nc(NCC3CCCO3)nc(NC3CCCCCC3)n2)cc1Cl` (stereo not drawn) [N-(3-Chloro-4-methoxy-phenyl)-N′-cycloheptyl-N″-(tetrahydro-furan-2-ylmethyl)-[1,3,5]triazine-2,4,6-triamine], the “activity in anti-proliferation assay” value is given as “high activity”.

In the next data set the test system is IL6. The data set is described as follows: inhibition of TNF-induced IL6 production. It counts as cell-based. The conditions noted are these: at 10 μM.
With `CCN1CCCC1CNc1nc(Nc2ccc(OC)c(F)c2)nc(N2CCN(CC(=O)N3CCCC3)CC2)n1` (stereo not drawn) [drawing 613, 2-{4-[4-[(1-Ethyl-pyrrolidin-2-ylmethyl)-amino]-6-(3-fluoro-4-meth-oxy-phenylamino)-[1,3,5tri-azin-2-yl]-pipera-zin-1-yl}-1-pyrrolidin-1-yl-eth-anone dihydrogen chloride salt], the inhibition (as a rule, how much of the control response was suppressed) at 10 µM was found to be 42%.

Staying with this data set, now noted: given as '50% at x μM'; read-out: Inhibition of TNF-induced IL6 production: concentration giving 50% inhibition.
`CCN1CCCC1CNc1nc(Nc2ccc(C)c(F)c2)nc(NC2CCCCCC2)n1` (stereo not drawn) [drawing 604, N-Cycloheptyl-N′-(1-ethyl-pyrrolidin-2-yl-methyl)-N″-(3-fluoro-4-meth-yl-phenyl)-[1,3,5]tri-azine-2,4,6-triamine]: the IC50 is 3.3 µM.

With `COc1ccc(Nc2nc(NCCCCCNC(=O)CCCCC3SCC4NC(=O)NC43)nc(NC3CCCCCC3)n2)cc1Cl` (stereo not drawn) [drawing 609, 5-(2-Oxo-hexahydro-thieno[3,4-d]imi-dazol-4-yl)-pentanoicacid {5-[4-(3-chloro-4-methoxy-phenylamino)-6-cycloheptylamino-[1,3,5]tri-azin-2-ylamino]-pentyl}-amide], the IC50 was 5 µM.

For the compound `COc1ccc(Nc2nc(NCCNC(=O)OC(C)(C)C)nc(NC3CCCCCC3)n2)cc1Cl` [drawing 602, {2-[4-(3-Chloro-4-meth-oxy-phenylamino)-6-cyclo-heptylamino-[1,3,5]triazin-2-ylamino]-eth-yl}-carbamic acid tert-butyl ester], the IC50 stood at 15 µM.

The test system of a further data set is MCP1. The data set is described as follows: inhibition of TNF-induced MCP1. The conditions noted are these: @ 10 uM concentration; read-out: TNF-induced MCP1, In-vitro % of inhibition. It counts as cell-based. How it is done:
The activity of the compounds of the present invention in inhibiting glycated protein- and AGE-induced inflammation can be determined using the assays described herein and in U.S. patent application Ser. No. 10/026,335, which is herein incorporated in its entirety. Such assays comprise measurement of the specific activity of biological components involved in a known cellular response. The assays provide a measurable response in which the activity of the compounds is determined. One assay comprises measurement of the effects of compounds on an inflammatory response by cells to the presence of a stimulating agent. Yet another assay comprises endothelial cells that are stimulated by the addition of a glycated protein, the stimulating agent. The endothelial cells respond by producing specific cytokines. The amount of cytokines produced are determined by measurement protocols known to those skilled in the art. The compounds of the present invention are then added to the assay and the production of cytokines is measured. From the comparison of the assay without the compound with the assay with the compound, the biological effect of the compound can be determined. The compound may have an inhibitory effect, a stimulatory effect, or no effect at all.
The amount and type of cytokine produced can be determined using immunological methods, such as ELISA assays. The methods of the present invention are not limited by the type of assay used to measure the amount of cytokine produced, and any methods known to those skilled in the art and later developed can be used to measure the amount of cytokines produced in response to the stimulating agent and to the compound having unknown activity.
Assays for determining the activity of compounds capable of modulating inflammation include those taught in U.S. patent application Ser. No. 10/026,335 and 09/969,013, which are both expressly incorporated by reference. In general, once the baseline response to the stimulating agent for the production of cytokines by the endothelial cells is established, thus comprising the control levels for the screening assay, the methods comprise addition of compounds of the present invention. The effect of the compound on the baseline response is determined by comparing the amount of cytokine produced in the presence of the stimulating agent and the amount of cytokine produced in the presence of the stimulating agent and the compound of the present invention. In a preferred method, compounds that have inhibitory effects on the inflammation of the cells in the presence of glycated albumin are then used as therapeutic agents. One or more compounds may be added to the screening assay. Combinations or mixtures of compounds can be added. Different amounts and formulations of the compounds are added to determine the effects on the screening assay. The screening assay may also be used to determine stimulatory compounds or compounds that have no effects in the assay.
Take `COc1ccc(Nc2nc(NC3CCCCCC3)nc(Oc3ccc(C(C)=O)cc3Cl)n2)cc1Cl` [drawing 626]: the inhibition at 10 µM worked out at 82%.

Take `COc1ccc(Nc2nc(NC3CCCCCC3)nc(Oc3ccc(/C=N\O)cc3)n2)cc1Cl` [drawing 625]: the inhibition at 10 µM is 100%.

`COc1ccc(Nc2nc(NC3CCCCCC3)nc(Oc3ccccc3F)n2)cc1Cl` [drawing 618]: the inhibition at 10 µM was determined as 10%.

With `COc1ccc(Nc2nc(NC3CCCCCC3)nc(-c3c(O)ccc4ccccc34)n2)cc1Cl` [drawing 634], the inhibition at 10 µM stood at 100%.

Consider `COc1ccc(Nc2nc(NC3CCCCCC3)nc(Sc3ccccc3)n2)cc1Cl` [drawing 628], for which the inhibition at 10 µM is 10%.

With `COc1ccc(Nc2nc(NC3CCCCCC3)nc(-c3cc(O)ccc3O)n2)cc1Cl`, the inhibition at 10 µM amounted to 100%.

Turning to `COc1ccc(Nc2nc(NC3CCCCCC3)nc(OCc3cccc(C)n3)n2)cc1Cl`, the inhibition at 10 µM amounted to 48%.

As for `COc1cc(OC)c(-c2nc(Nc3ccc(OC)c(Cl)c3)nc(NC3CCCCCC3)n2)c(OC)c1` [drawing 632], the inhibition at 10 µM is 10%.

As for `CCc1occc(=O)c1Oc1nc(Nc2ccc(OC)c(Cl)c2)nc(NC2CCCCCC2)n1` [drawing 616], the inhibition at 10 µM worked out at 48%.

As to `COc1ccc(Nc2nc(NC3CCCCCC3)nc(Sc3ccc(F)cc3)n2)cc1Cl` [drawing 630], the inhibition at 10 µM amounted to 15%.

For the compound `COc1ccc(Nc2nc(NC3CCCCCC3)nc(Oc3ccc(C(C)=O)cc3)n2)cc1Cl` [drawing 624], the inhibition at 10 µM came out at 25%.

System in another data set: not given
Test: not given
Details: not given
Turning to `COc1ccc(Nc2nc(NC3CCCCCC3)nc(Oc3ccccc3I)n2)cc1Cl` [Example 10, N^2-(3-chloro-4-methoxyphenyl)-N-4-cycloheptyl-6-(2-iodophenoxy)-1,3,5-triazine-4,2-diamine], the melting point – broadly, the temperature of the solid-liquid transition – was in the range of 206 to 208 °C.

Turning to `CCN1CCCC1CNc1nc(NC2CCCCCC2)nc(NC2CCC(O)CC2)n1` (stereo not drawn) [Example 31, 4-{4-Cycloheptylamino-6-[(1-ethyl-pyrrolidin-2-ylmethyl)-amino]-[1,3,5]triazin-2-ylamino}-cyclohexanol], the melting point came out at 92 °C.

For the compound `COc1ccc(Nc2nc(NNC(=O)CCCCC3SCC4NC(=O)NC43)nc(NC3CCCCCC3)n2)cc1Cl` (stereo not drawn), the melting point was found to be 154 °C.

For `COc1ccc(Nc2nc(NC3CCCCCC3)nc(Oc3ccc(C(C)=O)cc3Cl)n2)cc1Cl` [Example 19, 1-{3-chloro-4-[4-(3-chloro-4-methoxyphenylamino)-6-cycloheptylamino-[1,3,5]triazine-2-yloxy]phenyl}ethanone], the melting point fell in the range of 186 to 196 °C.

`COc1ccc(Nc2nc(NCC3CCCO3)nc(NC3CCCCCC3)n2)cc1Cl` (stereo not drawn) [Example 37, N-(3-Chloro-4-methoxy-phenyl)-N′-cycloheptyl-N″-(tetrahydro-furan-2-ylmethyl)-[1,3,5]triazine-2,4,6-triamine]: the melting point worked out at 77 °C.

For `CCN1CCCC1CNc1nc(Nc2ccc(C)c(F)c2)nc(NC2CCCCCC2)n1` (stereo not drawn) [Example 32, N-Cycloheptyl-N′-(1-ethyl-pyrrolidin-2-ylmethyl)-N″-(3-fluoro-4-methyl-phenyl)-[1,3,5]triazine-2,4,6-triamine], the melting point is 78 °C.

Turning to `CN1CCC(N(C)c2nc(Nc3cccc(F)c3)nc(NC3CCCCCC3)n2)CC1`, the melting point worked out at 86 °C.

`COc1ccc(Nc2nc(NCCN)nc(NC3CCCCCC3)n2)cc1Cl` [Example 40, N-(2-Amino-ethyl)-N′-(3-chloro-4-methoxy-phenyl)-N″-cycloheptyl-[1,3,5]triazine-2,4,6-triamine] came in with a melting point of 77 °C.

Turning to `COc1ccc(Nc2nc(NC3CCCCCC3)nc(Oc3ccccc3C#CC(C)(C)O)n2)cc1Cl` [Example 12, 4-{2-[4-(3-chloro-4-methoxyanilino)-6-cycloheptylamino-1,3,5-triazine-2-yl-oxy]-phenyl}-2-methyl-3-butyn-2-ol], the melting point was 150 to 158 °C.

In turn, `COc1ccc(Nc2nc(NC3CCCCCC3)nc(Oc3ccc(C=O)cc3)n2)cc1Cl` [Example 15, 4-[4-(3-chloro-4-methoxyanilino)-6-cycloheptylamino-1,3,5-triazine-2-yl-oxy]-benzaldehyde] had a melting point of 218 to 220 °C.

With `COc1ccc(Nc2nc(NC3CCCCCC3)nc(Oc3ccc(C#CC(C)(C)O)cc3)n2)cc1Cl`, the melting point was in the range of 132 to 134 °C.

`Cc1ccc(Nc2nc(NC3CCCCCC3)nc(N(C)C3CCN(C)CC3)n2)cc1F` registered a melting point of 93 °C.

Compound `COc1ccc(Nc2nc(NC3CCCCCC3)nc(OCC3CCCO3)n2)cc1Cl` (stereo not drawn) [Example 30, N-(3-Chloro-4-methoxy-phenyl)-N′-cycloheptyl-6-(tetrahydro-furan-2-ylmethoxy)-[1,3,5]triazine-2,4-diamine] returned a melting point of 61 °C.

In turn, `COc1ccc(Nc2nc(NCCNC(=O)OC(C)(C)C)nc(NC3CCCCCC3)n2)cc1Cl` [Example 39, {2-[4-(3-Chloro-4-methoxy-phenylamino)-6-cycloheptylamino-[1,3,5]triazin-2-ylamino]-ethyl}-carbamic acid tert-butyl ester] gave a melting point of 94 °C.

The compound `COc1ccc(Oc2nc(Oc3ccc(OC)c(F)c3)nc(Oc3ccc(OC)c(F)c3)n2)cc1F` [2,4,6-Tris-(3-fluoro-4-methoxy-phenoxy)-[1,3,5]triazine] came in with a melting point greater than 210 °C.

As for `CCN1CCCC1CNc1nc(Nc2ccc(OCc3ccccc3)c(Cl)c2)nc(NC2CCCCCC2)n1` (stereo not drawn), the melting point came out at 64 °C.

Source of the values: patent US7335770B2, “Triazine compounds and their analogs, compositions, and methods” (Reddy U5 Therapeutics, Inc., priority 2004, dated 2008).
